Assay results from patent US20050108047A1, “Business methods for commercializing antibiotics” (priority 2003, published 2005).

Test system: E. coli strain MG1655 and isogenic loss of function strains
Assay: Stressful Lifestyle Adaptive Mutation (SLAM) assay with ciprofloxacin
Type: cell-based
Description: […]. Five colonies of each strain, selected from 30 ug/mL kan plates, were grown for 24 hours in LB at 37° C. Dilutions of each culture were made in duplicate and plated on LB plates to determine the number of viable cells.
Also, two 150 μL cultures from each strain were plated on five additional plates for use in ‘survival’ experiments (see below). […] Every twenty-four hours for thirteen days post-plating, colonies were counted and marked and up to 10 representative colonies per strain were stocked in 15% glycerol and stored at −80° C., for use in the reconstruction experiments (see below). […]. After thirteen days, a reconstruction experiment [see FIG. 6; also see Bull, H J, Lombardo, M J, Rosenberg, S M: Stationary-phase mutation in the bacterial chromosome: recombination protein and DNA polymerase IV dependence. Proc Natl Acad Sci USA 2001, 98:8334-8341; and Rosenberg, S M: Evolving responsively: adaptive mutation. Nature Rev Genet 2001, 2:504-515] was performed to determine which of the resistant colonies isolated had evolved resistance via adaptive mutation after exposure to the antibiotic. […]. Only those colonies that grew in a shorter time during the reconstruction experiment than in the original experiment were considered to have acquired an adaptive mutation, i.e. occurred after exposure to the antibiotic. […].
[…]. […]

Question: `O=C(O)c1cn(C2CC2)c2cc(N3CCNCC3)c(F)cc2c1=O` [ciprofloxacin] was tested. Which “ability to evolve resistance to ciprofloxacin, LexA(Ind−) strain versus wild type” value (LexA S119A mutant, 35 ng/mL ciprofloxacin) did it give?
Answer: more than two orders of magnitude less able to evolve resistance

Question: What about the “decrease in rate of evolving the ability to grow at 60 ng/mL ciprofloxacin, LexA mutant” value (mutants selected at 35 ng/mL ciprofloxacin) of the same compound?
Answer: 300 fold
